Test results published in ChEMBL document CHEMBL5532720, “A Potent Solution for Tumor Growth and Angiogenesis Suppression via an ELR+CXCL-CXCR1/2 Pathway Inhibitor” (ACS Med Chem Lett, 2024).
Activity calls are given as the source filed them. The rule behind the calls is not given here.

How the values were obtained:
[1] = AUC (0 to infinity) in NOD SCID mouse at 200 mg/kg, po; assay type: ADME, organism-based; settings: in vivo
[2] = biological target: Phosphatidylinositol 4-kinase beta (Homo sapiens) (UniProt Q9UBF8); assay: Inhibition of PI4KB (unknown origin) at 10 uM in presence of ATP at Km concentration
[3] = Stability in human plasma assessed as compound remaining measured after 120 mins; assay type: ADME, cell-free; settings: read-out: Stability
[4] = biological target: Phosphorylase b kinase gamma catalytic chain, liver/testis isoform (Homo sapiens) (UniProt P15735); assay: Inhibition of PHKG2 (unknown origin) at 10 uM in presence of ATP at Km concentration
[5] = biological target: Mitogen-activated protein kinase kinase kinase kinase 5 (Homo sapiens) (UniProt Q9Y4K4); assay: Inhibition of MAP4K5 (unknown origin) at 10 uM in presence of ATP at Km concentration
[6] = biological target: Hepatocyte growth factor receptor (Homo sapiens) (UniProt P08581); assay: Inhibition of MET (unknown origin) at 10 uM in presence of ATP at Km concentration
[7] = Stability in human microsomes assessed as intrinsic clearance; assay type: ADME, Microsome
[8] = biological target: Casein kinase I isoform epsilon (Homo sapiens) (UniProt P49674); assay: Inhibition of CSNK1E (unknown origin) at 10 uM in presence of ATP at Km concentration
[9] = system: A498; assay: Antimetastatic activity against human A498 cells labeled with vybrant DiD cell-labeling solution xenografted in zebrafish embryo assessed as inhibition of neovascularization by measuring decrease in fluorescence intensity of GFP labeled blood vessel at 1 uM incubated for 72 hrs by fluorescence microscopic imaging analysis; assay type: functional, cell-based
[10] = Stability in mouse hepatocytes assessed as half-life; assay type: ADME, cell-based, Hepatocyte

Sequence of Phosphorylase b kinase gamma catalytic chain, liver/testis isoform (Homo sapiens) (P15735 whole entry, canonical isoform): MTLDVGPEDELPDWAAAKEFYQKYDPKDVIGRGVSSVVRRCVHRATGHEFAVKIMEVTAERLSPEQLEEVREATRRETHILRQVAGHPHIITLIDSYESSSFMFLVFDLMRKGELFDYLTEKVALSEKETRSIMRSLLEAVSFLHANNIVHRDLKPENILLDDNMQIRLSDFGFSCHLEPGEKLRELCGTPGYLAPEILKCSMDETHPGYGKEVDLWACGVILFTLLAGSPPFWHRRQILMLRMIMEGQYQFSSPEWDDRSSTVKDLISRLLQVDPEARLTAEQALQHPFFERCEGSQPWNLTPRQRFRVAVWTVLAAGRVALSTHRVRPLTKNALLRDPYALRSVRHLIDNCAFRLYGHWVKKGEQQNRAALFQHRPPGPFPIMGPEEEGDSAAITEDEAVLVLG
Sequence of Phosphatidylinositol 4-kinase beta (Homo sapiens) (Q9UBF8 2-816 limits assumed): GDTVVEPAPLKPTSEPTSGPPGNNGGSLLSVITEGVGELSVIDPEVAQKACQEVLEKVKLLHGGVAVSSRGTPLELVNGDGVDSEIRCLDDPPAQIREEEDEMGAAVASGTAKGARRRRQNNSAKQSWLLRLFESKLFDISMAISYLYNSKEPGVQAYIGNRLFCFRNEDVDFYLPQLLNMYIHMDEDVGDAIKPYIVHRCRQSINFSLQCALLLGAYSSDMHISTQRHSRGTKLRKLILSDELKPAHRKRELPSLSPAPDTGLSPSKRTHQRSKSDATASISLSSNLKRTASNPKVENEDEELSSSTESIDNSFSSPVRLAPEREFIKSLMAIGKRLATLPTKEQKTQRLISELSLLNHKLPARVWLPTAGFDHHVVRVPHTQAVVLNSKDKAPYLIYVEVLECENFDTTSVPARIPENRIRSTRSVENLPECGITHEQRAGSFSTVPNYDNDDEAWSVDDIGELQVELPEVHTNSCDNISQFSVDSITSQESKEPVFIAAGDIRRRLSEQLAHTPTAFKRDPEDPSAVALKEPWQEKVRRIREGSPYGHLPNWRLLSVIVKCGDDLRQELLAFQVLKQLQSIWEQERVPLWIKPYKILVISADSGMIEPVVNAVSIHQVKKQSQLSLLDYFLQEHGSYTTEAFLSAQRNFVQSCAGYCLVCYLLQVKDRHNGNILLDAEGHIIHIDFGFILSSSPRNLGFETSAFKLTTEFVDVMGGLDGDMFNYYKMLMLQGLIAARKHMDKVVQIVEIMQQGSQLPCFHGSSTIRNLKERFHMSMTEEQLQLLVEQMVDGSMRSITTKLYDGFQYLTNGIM
Sequence of Casein kinase I isoform epsilon (Homo sapiens) (P49674 whole entry, looked up, canonical isoform): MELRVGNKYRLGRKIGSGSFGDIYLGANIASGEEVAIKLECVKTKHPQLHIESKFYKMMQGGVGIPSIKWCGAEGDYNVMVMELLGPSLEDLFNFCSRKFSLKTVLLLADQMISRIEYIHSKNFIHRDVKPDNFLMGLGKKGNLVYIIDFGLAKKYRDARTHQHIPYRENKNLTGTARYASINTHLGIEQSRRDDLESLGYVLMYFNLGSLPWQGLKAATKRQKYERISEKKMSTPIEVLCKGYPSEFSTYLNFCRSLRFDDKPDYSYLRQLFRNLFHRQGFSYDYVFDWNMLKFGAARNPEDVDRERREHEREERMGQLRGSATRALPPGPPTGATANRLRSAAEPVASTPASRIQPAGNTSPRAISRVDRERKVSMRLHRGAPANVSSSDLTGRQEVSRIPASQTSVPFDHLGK
Sequence of Hepatocyte growth factor receptor (Homo sapiens) (P08581 whole entry): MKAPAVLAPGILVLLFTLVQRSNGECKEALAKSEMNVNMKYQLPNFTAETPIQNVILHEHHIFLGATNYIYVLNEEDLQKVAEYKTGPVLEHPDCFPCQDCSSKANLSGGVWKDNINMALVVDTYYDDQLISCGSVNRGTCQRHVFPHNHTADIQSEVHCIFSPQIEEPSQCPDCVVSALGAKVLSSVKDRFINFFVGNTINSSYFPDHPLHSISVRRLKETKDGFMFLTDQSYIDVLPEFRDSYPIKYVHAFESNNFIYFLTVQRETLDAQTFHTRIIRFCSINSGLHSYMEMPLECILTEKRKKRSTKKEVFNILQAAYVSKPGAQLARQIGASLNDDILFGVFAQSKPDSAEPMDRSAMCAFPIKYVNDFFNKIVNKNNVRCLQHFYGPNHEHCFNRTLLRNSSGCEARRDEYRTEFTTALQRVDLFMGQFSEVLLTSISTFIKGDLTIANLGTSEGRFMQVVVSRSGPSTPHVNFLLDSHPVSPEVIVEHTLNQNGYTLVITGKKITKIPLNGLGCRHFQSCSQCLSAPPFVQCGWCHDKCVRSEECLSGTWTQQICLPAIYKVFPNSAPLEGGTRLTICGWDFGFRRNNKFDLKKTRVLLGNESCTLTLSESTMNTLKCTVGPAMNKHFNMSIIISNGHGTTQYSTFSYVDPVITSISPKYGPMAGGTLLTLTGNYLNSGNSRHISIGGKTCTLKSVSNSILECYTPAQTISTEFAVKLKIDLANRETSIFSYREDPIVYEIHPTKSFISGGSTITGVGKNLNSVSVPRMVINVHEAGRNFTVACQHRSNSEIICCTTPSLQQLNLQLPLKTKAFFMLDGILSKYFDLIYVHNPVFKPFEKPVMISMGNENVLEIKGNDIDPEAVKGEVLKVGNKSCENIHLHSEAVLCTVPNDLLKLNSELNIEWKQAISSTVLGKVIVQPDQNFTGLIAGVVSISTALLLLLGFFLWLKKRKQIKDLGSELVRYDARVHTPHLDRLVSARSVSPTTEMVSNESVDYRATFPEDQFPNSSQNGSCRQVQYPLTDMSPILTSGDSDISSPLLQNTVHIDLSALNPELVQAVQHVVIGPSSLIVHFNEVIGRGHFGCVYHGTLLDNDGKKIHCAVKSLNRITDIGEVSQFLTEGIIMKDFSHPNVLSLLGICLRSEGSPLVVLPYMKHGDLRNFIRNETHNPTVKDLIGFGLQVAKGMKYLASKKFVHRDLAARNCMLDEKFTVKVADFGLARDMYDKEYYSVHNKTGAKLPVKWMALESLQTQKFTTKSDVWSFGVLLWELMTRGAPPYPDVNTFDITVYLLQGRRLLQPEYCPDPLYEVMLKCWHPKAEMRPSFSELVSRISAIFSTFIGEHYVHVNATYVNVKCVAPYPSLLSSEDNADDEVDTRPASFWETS
Sequence of Mitogen-activated protein kinase kinase kinase kinase 5 (Homo sapiens) (Q9Y4K4 whole entry, looked up): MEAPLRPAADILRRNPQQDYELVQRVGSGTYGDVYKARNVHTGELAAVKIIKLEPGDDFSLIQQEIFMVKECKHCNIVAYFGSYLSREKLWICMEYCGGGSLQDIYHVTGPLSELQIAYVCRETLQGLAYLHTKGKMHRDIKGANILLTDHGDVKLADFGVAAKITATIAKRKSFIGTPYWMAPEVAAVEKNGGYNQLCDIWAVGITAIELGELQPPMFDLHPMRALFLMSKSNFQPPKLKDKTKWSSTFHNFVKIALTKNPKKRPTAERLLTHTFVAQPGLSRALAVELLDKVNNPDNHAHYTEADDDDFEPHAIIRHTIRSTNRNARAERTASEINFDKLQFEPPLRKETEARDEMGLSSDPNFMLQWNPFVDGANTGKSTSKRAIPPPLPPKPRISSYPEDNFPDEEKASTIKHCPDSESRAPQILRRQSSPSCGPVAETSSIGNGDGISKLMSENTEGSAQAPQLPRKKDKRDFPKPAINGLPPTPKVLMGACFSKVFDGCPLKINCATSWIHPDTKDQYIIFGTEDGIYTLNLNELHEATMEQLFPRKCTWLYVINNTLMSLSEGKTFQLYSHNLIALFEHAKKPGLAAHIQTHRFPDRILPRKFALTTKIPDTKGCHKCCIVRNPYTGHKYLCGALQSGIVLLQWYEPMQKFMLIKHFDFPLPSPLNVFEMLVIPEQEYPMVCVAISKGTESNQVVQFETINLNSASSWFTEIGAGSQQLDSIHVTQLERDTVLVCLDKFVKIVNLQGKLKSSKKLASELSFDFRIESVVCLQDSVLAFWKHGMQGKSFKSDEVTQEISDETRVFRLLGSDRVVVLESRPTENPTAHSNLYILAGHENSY

AUC(0-inf) [1]: 19300 ng·h/mL | inhibition [2]: inactive | remaining at 2 h [3]: 85% | inhibition [4]: inactive | inhibition [5]: inactive | inhibition [6]: inactive | microsomal CLint [7]: < 116 µL/min/mg | inhibition [8]: inactive | half-life [10]: 21.1 min
SMILES: O=C(Nc1cc(Cl)cc(Cl)c1)Nc1nc2ccc([N+](=O)[O-])cc2s1
Activity [9]: Active
